Earlier results on 2 compounds are cited in patent US9974792B2, “Methods for treating cancers” (Gilead Sciences, Inc., priority 2013, dated 2018).

Data set [1] deals with subjects with B-cell malignancies, CLL/SLL. Conditions: cited from earlier work.
In a further data set the test system is CLL subjects. The settings on record: rituximab monotherapy; CLL subjects with similar median age and prior therapies; cited from earlier work.

As to `COc1cc(Nc2ncc(F)c(Nc3ccc4c(n3)N(COP(=O)(O)O)C(=O)C(C)(C)O4)n2)cc(OC)c1OC` [fostamatinib], the PFS in data set [1] (11 subjects with CLL/SLL) is reported as 6.4 months. In addition, the “overall progression-free survival (PFS)” value in data set [1] (participants treated in the phase 2 portion of the study) was 18 weeks. Also, the Response rate in data set [1] (six subjects with partial lymph-node reduction of at least 50%) was 54.5%.

On to “rituximab: monoclonal antibody (anti-CD20), monotherapy comparator in CLL subjects”, for which, in the data set on CLL subjects, the “24-week PFS” value was 46%.
